Patent US7414077B2, “Therapeutic intervention to mimic the effect of caloric restriction” (priority 1999, dated 2008)

Tests used:
[1] = tested on: 5′ deiodinase; experiment: effect of in vitro free fatty acids on 5′ deiodinase activity (thyroid hormone synthesis in vitro); type: biochemical; details: 1 mM free fatty acid; as a function of substrate concentration
Description: (§1) Reaction velocities were measured under control conditions (▴) and in the presence of 1 mM free fatty acids palmitic acid (●) and oleic acid (▪). Each point on the curve represents the mean of triplicate determinations. Lineweaver-Burk plots described lines characterized by r^2 from 0.988-0.999.

[2] = tested on: 5′ deiodinase; experiment: 5′ deiodinase activity as a function of substrate concentration (Lineweaver-Burk), control conditions; type: biochemical; details: in vitro, without free fatty acids, mean of triplicate determinations, Lineweaver-Burk plot, FIG. 2A
Description: as §1

Compound | effect on thyroid hormone synthesis in vitro (5′ deiodinase activity) [1] | Km [2]
CCCCCCCC/C=C\CCCCCCCC(=O)O [oleic acid] | inhibit thyroid hormone synthesis in vitro | –
CCCCCCCCCCCCCCCC(=O)O [palmitic acid] | inhibit thyroid hormone synthesis in vitro | –
N[C@@H](Cc1ccc(Oc2cc(I)c(O)c(I)c2)c(I)c1)C(=O)O [rT3] | – | 2.38 µM
